Assay results published in ChEMBL document CHEMBL1201862, “PubChem BioAssay data set” (2004).
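Grown in 96-well plates, cells were treated for 48 hours with each compound at five concentrations. Insufficient inhibition: endpoint recorded as highest concentration tested. GI50 is the concentration that inhibits growth by half.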 Calls of active or inactive are those of the source. No stated cut-off is given here; in the data, active = GI50 up to about 1.1 µM and inactive = higher.

Columns and labels:
Assay in all cases: NCI anticancer screen, dose series, 48 h
A549 = test system: A549
ACHN = test system: ACHN
CCRF-CEM = test system: CCRF-CEM
HCC 2998 = test system: HCC 2998
HOP-62 = test system: HOP-62
HOP-92 = test system: HOP-92
KM12 = test system: KM12
MCF7 = test system: MCF7
MDA-MB-435 = test system: MDA-MB-435
NCI-H226 = test system: NCI-H226
OVCAR-5 = test system: OVCAR-5
PC-3 = test system: PC-3
SF-295 = test system: SF-295
SF-539 = test system: SF-539
SK-OV-3 = test system: SK-OV-3
SNB-75 = test system: SNB-75
SR = test system: SR
T47D = test system: T47D
UACC-257 = test system: UACC-257
UO-31 = test system: UO-31

SMILES: O=C1OC[C@H]2[C@@H]1[C@H]1O[C@@H]2C2=C(CCC2)C1=O
- GI50 (A549): > 100 µM (inactive)
- GI50 (ACHN): > 100 µM (inactive)
- GI50 (CCRF-CEM): > 100 µM (inactive)
- GI50 (HCC 2998): > 100 µM (inactive)
- GI50 (HOP-62): > 100 µM (inactive)
- GI50 (HOP-92): > 100 µM (inactive)
- GI50 (KM12): > 100 µM (inactive)
- GI50 (MCF7): > 100 µM (inactive)
- GI50 (MDA-MB-435): > 100 µM (inactive)
- GI50 (NCI-H226): > 100 µM (inactive)
- GI50 (OVCAR-5): > 100 µM (inactive)
- GI50 (PC-3): > 100 µM (inactive)
- GI50 (SF-295): > 100 µM (inactive)
- GI50 (SF-539): > 100 µM (inactive)
- GI50 (SK-OV-3): > 100 µM (inactive)
- GI50 (SNB-75): > 100 µM (inactive)
- GI50 (SR): > 100 µM (inactive)
- GI50 (T47D): > 100 µM (inactive)
- GI50 (UACC-257): > 100 µM (inactive)
- GI50 (UO-31): > 100 µM (inactive)

SMILES: COC(=O)C(=O)C(C(=O)C(=O)Nc1ccc(C)c(C)c1)c1nc2ccc([N+](=O)[O-])cc2nc1O (stereo not drawn)
- GI50 (A549): > 100 µM (inactive)
- GI50 (ACHN): > 100 µM (inactive)
- GI50 (CCRF-CEM): > 100 µM (inactive)
- GI50 (HCC 2998): > 100 µM (inactive)
- GI50 (HOP-62): > 100 µM (inactive)
- GI50 (HOP-92): > 100 µM (inactive)
- GI50 (KM12): > 100 µM (inactive)
- GI50 (MCF7): > 100 µM (inactive)
- GI50 (MDA-MB-435): > 100 µM (inactive)
- GI50 (NCI-H226): > 100 µM (inactive)
- GI50 (OVCAR-5): > 100 µM (inactive)
- GI50 (PC-3): > 100 µM (inactive)
- GI50 (SF-295): > 100 µM (inactive)
- GI50 (SF-539): > 100 µM (inactive)
- GI50 (SK-OV-3): > 100 µM (inactive)
- GI50 (SNB-75): > 100 µM (inactive)
- GI50 (SR): > 100 µM (inactive)
- GI50 (T47D): > 100 µM (inactive)
- GI50 (UACC-257): > 100 µM (inactive)
- GI50 (UO-31): 68.9 µM (inactive)

SMILES: N/C(=N\Nc1cccc(Cl)c1)c1cccnc1
- GI50 (A549): 52.7 µM (inactive)
- GI50 (ACHN): 18.9 µM (inactive)
- GI50 (CCRF-CEM): 18.6 µM (inactive)
- GI50 (HCC 2998): 36 µM (inactive)
- GI50 (HOP-62): > 100 µM (inactive)
- GI50 (HOP-92): > 68.7 µM (inactive)
- GI50 (KM12): 30 µM (inactive)
- GI50 (MCF7): 38.7 µM (inactive)
- GI50 (MDA-MB-435): 2.72 µM (inactive)
- GI50 (NCI-H226): 33.9 µM (inactive)
- GI50 (OVCAR-5): 41.3 µM (inactive)
- GI50 (PC-3): 31 µM (inactive)
- GI50 (SF-295): 35.7 µM (inactive)
- GI50 (SF-539): 30.2 µM (inactive)
- GI50 (SK-OV-3): > 100 µM (inactive)
- GI50 (SNB-75): 29.7 µM (inactive)
- GI50 (SR): 26 µM (inactive)
- GI50 (T47D): 18.9 µM (inactive)
- GI50 (UACC-257): 32.3 µM (inactive)
- GI50 (UO-31): 7.87 µM (inactive)

SMILES: CC(=O)N1C(CCc2ccccc2)CC(C)(C=O)C1Cc1ccc(O[Si](C(C)C)(C(C)C)C(C)C)cc1 (stereo not drawn)
- GI50 (A549): 3.87 µM (inactive)
- GI50 (ACHN): 6.89 µM (inactive)
- GI50 (CCRF-CEM): 1.87 µM (inactive)
- GI50 (HCC 2998): 1.31 µM (inactive)
- GI50 (HOP-62): 8.11 µM (inactive)
- GI50 (HOP-92): 9.71 µM (inactive)
- GI50 (KM12): 3.02 µM (inactive)
- GI50 (MCF7): 2.05 µM (inactive)
- GI50 (MDA-MB-435): 2.63 µM (inactive)
- GI50 (NCI-H226): 6.76 µM (inactive)
- GI50 (OVCAR-5): 14.7 µM (inactive)
- GI50 (PC-3): 3.18 µM (inactive)
- GI50 (SF-295): 5.11 µM (inactive)
- GI50 (SF-539): 2.43 µM (inactive)
- GI50 (SK-OV-3): 13.4 µM (inactive)
- GI50 (SNB-75): 3.92 µM (inactive)
- GI50 (SR): 2.09 µM (inactive)
- GI50 (T47D): 2.2 µM (inactive)
- GI50 (UACC-257): 5.11 µM (inactive)
- GI50 (UO-31): 3.21 µM (inactive)

SMILES: O=C1CC2OCC=C3CN4CCC5(C(=O)O)C(N1)C2C3CC45 (stereo not drawn)
- GI50 (A549): > 100 µM (inactive)
- GI50 (ACHN): > 100 µM (inactive)
- GI50 (CCRF-CEM): > 100 µM (inactive)
- GI50 (HCC 2998): > 100 µM (inactive)
- GI50 (HOP-62): > 100 µM (inactive)
- GI50 (HOP-92): > 100 µM (inactive)
- GI50 (KM12): > 100 µM (inactive)
- GI50 (MCF7): > 100 µM (inactive)
- GI50 (MDA-MB-435): > 100 µM (inactive)
- GI50 (NCI-H226): > 100 µM (inactive)
- GI50 (OVCAR-5): > 100 µM (inactive)
- GI50 (PC-3): > 100 µM (inactive)
- GI50 (SF-295): > 100 µM (inactive)
- GI50 (SF-539): > 100 µM (inactive)
- GI50 (SK-OV-3): > 100 µM (inactive)
- GI50 (SNB-75): > 100 µM (inactive)
- GI50 (SR): > 100 µM (inactive)
- GI50 (T47D): > 100 µM (inactive)
- GI50 (UACC-257): > 100 µM (inactive)
- GI50 (UO-31): > 100 µM (inactive)

SMILES: O=C1NC(=O)C2=C1CCC2O (stereo not drawn)
- GI50 (A549): > 100 µM (inactive)
- GI50 (ACHN): > 100 µM (inactive)
- GI50 (CCRF-CEM): > 100 µM (inactive)
- GI50 (HCC 2998): > 100 µM (inactive)
- GI50 (HOP-62): > 100 µM (inactive)
- GI50 (HOP-92): > 100 µM (inactive)
- GI50 (KM12): > 100 µM (inactive)
- GI50 (MCF7): > 100 µM (inactive)
- GI50 (MDA-MB-435): > 100 µM (inactive)
- GI50 (NCI-H226): > 100 µM (inactive)
- GI50 (OVCAR-5): > 100 µM (inactive)
- GI50 (PC-3): > 100 µM (inactive)
- GI50 (SF-295): > 100 µM (inactive)
- GI50 (SF-539): > 100 µM (inactive)
- GI50 (SK-OV-3): > 100 µM (inactive)
- GI50 (SNB-75): > 100 µM (inactive)
- GI50 (SR): > 100 µM (inactive)
- GI50 (T47D): > 100 µM (inactive)
- GI50 (UACC-257): > 100 µM (inactive)
- GI50 (UO-31): > 100 µM (inactive)

SMILES: Cc1nc(C(N)=S)sc1C(=O)C/C(=N/N)C(=O)Nc1cccc(Cl)c1C
- GI50 (A549): > 100 µM (inactive)
- GI50 (ACHN): > 100 µM (inactive)
- GI50 (CCRF-CEM): > 100 µM (inactive)
- GI50 (HCC 2998): > 100 µM (inactive)
- GI50 (HOP-62): > 100 µM (inactive)
- GI50 (HOP-92): > 100 µM (inactive)
- GI50 (KM12): > 100 µM (inactive)
- GI50 (MCF7): > 100 µM (inactive)
- GI50 (MDA-MB-435): > 100 µM (inactive)
- GI50 (NCI-H226): > 100 µM (inactive)
- GI50 (OVCAR-5): > 100 µM (inactive)
- GI50 (PC-3): > 100 µM (inactive)
- GI50 (SF-295): > 100 µM (inactive)
- GI50 (SF-539): > 100 µM (inactive)
- GI50 (SK-OV-3): > 100 µM (inactive)
- GI50 (SNB-75): > 100 µM (inactive)
- GI50 (SR): > 100 µM (inactive)
- GI50 (T47D): > 100 µM (inactive)
- GI50 (UACC-257): > 100 µM (inactive)
- GI50 (UO-31): > 100 µM (inactive)

SMILES: CCCCCCCCCCCCOCCCCCCCCC/C=C/c1ccc2c(c1)OCCOCCOCCOCCO2
- GI50 (A549): 17.6 µM (inactive)
- GI50 (ACHN): 19.1 µM (inactive)
- GI50 (CCRF-CEM): 39.5 µM (inactive)
- GI50 (HCC 2998): 17.9 µM (inactive)
- GI50 (HOP-62): 28 µM (inactive)
- GI50 (HOP-92): 12.2 µM (inactive)
- GI50 (KM12): 16.8 µM (inactive)
- GI50 (MCF7): 16.3 µM (inactive)
- GI50 (MDA-MB-435): 18.3 µM (inactive)
- GI50 (NCI-H226): 17.8 µM (inactive)
- GI50 (OVCAR-5): 31 µM (inactive)
- GI50 (PC-3): 17.9 µM (inactive)
- GI50 (SF-295): 16.3 µM (inactive)
- GI50 (SF-539): 17.4 µM (inactive)
- GI50 (SK-OV-3): 17.5 µM (inactive)
- GI50 (SNB-75): 16.4 µM (inactive)
- GI50 (SR): 21 µM (inactive)
- GI50 (T47D): 24.9 µM (inactive)
- GI50 (UACC-257): 27 µM (inactive)
- GI50 (UO-31): 19.1 µM (inactive)

SMILES: Cc1c(C)c2c(c(N)c1C#N)C(=O)N(NC(=S)Nc1ccccc1)C2=O
- GI50 (A549): > 100 µM (inactive)
- GI50 (ACHN): 50 µM (inactive)
- GI50 (CCRF-CEM): 62.5 µM (inactive)
- GI50 (HCC 2998): > 100 µM (inactive)
- GI50 (HOP-92): > 100 µM (inactive)
- GI50 (KM12): 91.4 µM (inactive)
- GI50 (MCF7): > 100 µM (inactive)
- GI50 (MDA-MB-435): > 100 µM (inactive)
- GI50 (NCI-H226): 42.8 µM (inactive)
- GI50 (OVCAR-5): > 100 µM (inactive)
- GI50 (PC-3): > 100 µM (inactive)
- GI50 (SF-295): 60.8 µM (inactive)
- GI50 (SF-539): 49.8 µM (inactive)
- GI50 (SK-OV-3): > 100 µM (inactive)
- GI50 (SNB-75): 39 µM (inactive)
- GI50 (SR): 22.4 µM (inactive)
- GI50 (T47D): > 100 µM (inactive)
- GI50 (UACC-257): > 100 µM (inactive)
- GI50 (UO-31): 44.4 µM (inactive)

SMILES: COc1cc(C2C3=C(COC3=O)Oc3cc4c(cc32)OCO4)ccc1O (stereo not drawn)
- GI50 (A549): 0.41 µM (active)
- GI50 (ACHN): 0.653 µM (active)
- GI50 (CCRF-CEM): 0.352 µM (active)
- GI50 (HCC 2998): 0.893 µM (active)
- GI50 (HOP-62): 0.394 µM (active)
- GI50 (HOP-92): 3.59 µM (inactive)
- GI50 (KM12): 0.262 µM (active)
- GI50 (MCF7): 0.277 µM (active)
- GI50 (MDA-MB-435): 0.0552 µM (active)
- GI50 (NCI-H226): 9.55 µM (inactive)
- GI50 (OVCAR-5): 3.78 µM (inactive)
- GI50 (PC-3): 0.167 µM (active)
- GI50 (SF-295): 0.127 µM (active)
- GI50 (SF-539): 0.281 µM (active)
- GI50 (SK-OV-3): 0.302 µM (active)
- GI50 (SNB-75): 0.225 µM (active)
- GI50 (SR): 0.252 µM (active)
- GI50 (T47D): 0.49 µM (active)
- GI50 (UO-31): 0.327 µM (active)
